We go through 17 compounds from US9193717B2, “Mineralocorticoid receptor antagonists” (Merck Sharp & Dohme Corp., priority 2011, dated 2015).

SMILES strings stand for the structures. Where only a bound is given, the exact number is not on record here.

This experiment addresses T1, full-length human Mineralocorticoid Receptor (MR) (Homo sapiens, UniProt P08235).
T1 construct: full-length human Mineralocorticoid Receptor (MR); host or cells: PathHunter CHO-K1 cells
T1 sequence (P08235 1-984): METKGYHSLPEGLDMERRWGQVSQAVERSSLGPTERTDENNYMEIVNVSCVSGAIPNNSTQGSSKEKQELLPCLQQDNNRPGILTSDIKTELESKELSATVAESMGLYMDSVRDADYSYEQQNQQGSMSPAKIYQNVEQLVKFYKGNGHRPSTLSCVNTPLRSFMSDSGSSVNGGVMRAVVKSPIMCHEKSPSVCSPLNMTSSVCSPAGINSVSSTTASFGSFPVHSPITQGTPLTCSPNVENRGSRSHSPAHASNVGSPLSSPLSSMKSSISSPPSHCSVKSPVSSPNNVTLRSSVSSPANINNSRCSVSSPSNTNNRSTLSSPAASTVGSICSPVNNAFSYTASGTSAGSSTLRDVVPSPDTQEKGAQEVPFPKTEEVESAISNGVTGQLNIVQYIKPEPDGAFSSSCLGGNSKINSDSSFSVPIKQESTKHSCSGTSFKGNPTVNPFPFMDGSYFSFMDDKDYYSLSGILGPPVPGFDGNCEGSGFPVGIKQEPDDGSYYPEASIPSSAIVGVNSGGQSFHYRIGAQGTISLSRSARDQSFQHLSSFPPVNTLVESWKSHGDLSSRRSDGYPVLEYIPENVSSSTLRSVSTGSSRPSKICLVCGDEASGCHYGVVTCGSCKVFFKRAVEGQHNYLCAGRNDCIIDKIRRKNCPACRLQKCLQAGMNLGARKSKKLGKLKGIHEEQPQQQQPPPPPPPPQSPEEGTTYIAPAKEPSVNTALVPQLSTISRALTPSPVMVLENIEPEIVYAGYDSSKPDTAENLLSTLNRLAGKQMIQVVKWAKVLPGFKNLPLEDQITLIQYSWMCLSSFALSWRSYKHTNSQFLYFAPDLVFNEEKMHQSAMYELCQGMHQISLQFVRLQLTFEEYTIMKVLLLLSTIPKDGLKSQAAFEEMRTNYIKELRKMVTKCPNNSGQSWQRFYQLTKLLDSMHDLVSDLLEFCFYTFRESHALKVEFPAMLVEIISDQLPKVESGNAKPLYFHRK
Put plainly: human MR NH Pro assay (PathHunter Protein:Protein interaction assay, MR antagonism). The experiment is classed as cell-based. The following applies: PathHunter CHO-K1 cells that overexpress human MR; aldosterone (0.3 nM), 6 hours at 37° C.; antagonist mode; read-out: IC50 rating. The method, then: The activity of the compounds of the present invention regarding mineralocorticoid receptor antagonism was evaluated using the following assay.
Assessment of Mr Potency in HMR NH Pro Assay
The human MR NH Pro assay is a commercially available PathHunter™ Protein:Protein interaction assay (DiscoveRx; http://www.discoverx.com/nhrs/prod-nhrs.php) that measures the ability of compounds to antagonize full-length human Mineralocorticoid Receptor (MR) binding to a coactivator peptide. PathHunter™ CHO—K1 cells that overexpress human MR (Cat #93-0456C2, Lot No: 09B0913) were cultured in growth media (F12K w/Glutamine and phenol red (Gibco 11765-047) supplemented with 10% HI FBS (Gibco 16000); 0.25 mg/ml Hygromycin in PBS (Invitrogen 10687-010, 50 mg/ml); 100 I.U./mL and 100 μg/mL Pen/Strep (Gibco 15140-122); 0.6 mg/mL Geneticin).
Compounds were assessed for MR antagonist activity by incubating the cells with a titrating dose of compound in F12K w/Glutamine and phenol red culture media (Invitrogen 11765-047) supplemented with 1% Charcoal/Dextran Treated FBS (Hyclone #SH30068.01) and aldosterone (0.3 nM) for 6 hours at 37° C. […] Growth Media: • F12K w/Glutamine and phenol red (Gibco 11765-047) • 10% HI FBS (Gibco 16000) • 0.25 mg/ml Hygromycin in PBS (Invitrogen 10687-010, 50 mg/ml) • 100 I.U./mL and 100 μg/mL Pen/Strep (Gibco 15140-122) • 0.6 mg/mL Geneticin (Gibco 10131, 50 mg/ml) • 2. Assay Media: • F12K w/Glutamine and phenol red (Invitrogen 11765-047) • 1% Charcoal/Dextran Treated FBS (Hyclone #SH30068.01) • 3. 3× PathHunter Detection Reagents (Cat#93-0001) (need ˜6 ml/plate). […] Control Agonist:Aldosterone:Sigma cat# A9477 • Prepare stock solution-10 μM in DMSO kept at −20° C. • for assay, dilute in assay media to 1.8 or 6 nM (6× of final concentration=about 0.3 nM to about 1.0 nM) • 5. Cell line: PathHunter CHO—K1 MR cells Cat #93-0456C2, Lot No: 09B0913, from operation liquid nitrogen stock. • 6. Control Antagonist:Spironolactone:Sigma #S-3378 and Eplerenone Sigma #107724-20-9 (10 mM stock concentration also prepared in DMSO and stored at −20° C.). • Methods: • Assay Set up and Calculations: • 1. Cells were grown in F12+FBS+Hygromycin+pen/strep+Genetin • 2. Cells were collected with 0.05% trypsin and the cell suspension was spun and resuspended in a volume of F12+1.5% CD-FBS and counted. • 3. The cells were resuspended to 4×10^5 cells/mL. • 4. Cells were (25 μL/well) added to the wells of a 384 well plate. • 5. The plate was then incubated at 37° C. over night in a humidified incubator with 5% CO2. • 6. Test compounds were titrated starting at 4.4 mM, 10-point titration in 1:3 dilution. • 7. Aldosterone was diluted in assay media to 1.8 nM or 6 nM from 10 μM stock (final concentration to be about 0.3 nM to about 1.0 nM). • Protocol for 384 Well Plate Format: 6 Hr Treatment: • 1. Plated 10K exponentially growing cells/well (25 μL) resuspended in assay media to each well using the Multidrop (Thermo Electron) (use white wall, clear bottom assay plates (Costar #3570) and incubate overnight at 37° C., 5% CO2. • 2. 0.25 μL 120× test compound (final DMSO concentration should be <1%) was added to each well n=2, 10 point titrations starting at 36.7 μM final concentration. • 3. 5 μL 6× agonist (final aldosterone concentration should be about 0.3 nM to about 1.0 nM) was added to all wells using the PlateMate Plus.
(ThermoFisher) (except those wells in columns 23 and 24) • 4. 5 μL of assay media was added to all wells in column 23 and 24. • 5. Plates were incubated 6 hrs at 37° C., 5% CO2. • 6. 15 μL 3× DiscoveRx detection reagent was added to each well. • 7. Plates were incubated for 1 hour at room temperature (plates stored in the dark). • 8. Plates were read on Envision (PerkinElmer) luminesence plate reader and analyzed using ADA.
Take `C[C@H](c1ccccc1)N1C(=O)N[C@](Cc2ccccc2)(c2nc3ccc(Cl)cc3[nH]2)C1=O` (single isomer, unassigned) [Compound 38]: the half-maximal inhibitory concentration (IC50) lay within 500 to 2000 nM.

For the compound `C[C@H](c1ccc(F)cc1)N1C(=O)O[C@](Cc2ccccc2)(c2nc3cc(Cl)ccc3[nH]2)C1=O` [Compound 1, (5R)-5-Benzyl-5-(5-chloro-1H-benzimidazol-2-yl)-3-[(1R)-1-(4-fluorophenyl)ethyl]-1,3-oxazolidine-2,4-dione], the half-inhibitory concentration (IC50) was 100 to 500 nM.

With `C[C@H](c1ccc(F)cc1)N1C(=O)O[C@](Cc2ccccc2)(c2nc3cc(F)ccc3[nH]2)C1=O` [Compound 2, (5R)-5-Benzyl-5-(5-fluoro-1H-benzimidazol-2-yl)-3-[(1R)-1-(4-fluorophenyl)ethyl]-1,3-oxazolidine-2,4-dione], the IC50 lay within 100 to 500 nM.

For the compound `C[C@H](c1ccc(F)cc1)N1C(=O)O[C@](Cc2ccccc2)(c2nc3ccccc3[nH]2)C1=O` [Compound 3, (5R)-5-(1H-Benzimidazol-2-yl)-5-benzyl-3-[(1R)-1-(4-fluorophenyl)ethyl]-1,3-oxazolidine-2,4-dione], the IC50 was 100 to 500 nM.

Turning to `C[C@H](c1ccc(F)cc1)N1C(=O)O[C@](Cc2ccccc2)(c2nc3cc(OC(F)(F)F)ccc3[nH]2)C1=O` [Compound 4, (5R)-5-Benzyl-3-[(1R)-1-(4-fluorophenyl)ethyl]-5-[5-(trifluoromethoxy)-1H-benzimidazol-2-yl]-1,3-oxazolidine-2,4-dione], the concentration for half-maximal inhibition (IC50) lay within 100 to 500 nM.

As to `COC(=O)c1ccc2nc([C@@]3(Cc4ccccc4)OC(=O)N([C@H](C)c4ccc(F)cc4)C3=O)[nH]c2c1` [Compound 5, Methyl 2-{(5R)-5-benzyl-3-[(1R)-1-(4-fluorophenyl)ethyl]-2,4-dioxo-1,3-oxazolidin-5-yl}-1H-benzimidazole-5-carboxylate], the 50% inhibitory concentration (IC50) fell in the range of 100 to 500 nM.

Turning to `C[C@H](c1ccc(F)cc1)N1C(=O)O[C@](Cc2ccccc2)(c2nc3cc(-n4cnnn4)ccc3[nH]2)C1=O` [Compound 6, (5R)-5-Benzyl-3-[(1R)-1-(4-fluorophenyl)ethyl]-5-[6-(1H-tetrazol-1-yl)-1H-benzimidazol-2-yl]-1,3-oxazolidine-2,4-dione], the 50% inhibitory concentration (IC50) lay within 100 to 500 nM.

Take `C[C@H](c1ccc(F)cc1)N1C(=O)O[C@](Cc2ccccc2)(c2nc3cc(C(F)(F)F)ccc3[nH]2)C1=O` [Compound 8, (5R)-5-Benzyl-3-[(1R)-1-(4-fluorophenyl)ethyl]-5-[5-(trifluoromethyl)-1H-benzimidazol-2-yl]-1,3-oxazolidine-2,4-dione]: the 50% inhibitory concentration (IC50) is less than 100 nM.

As to `C[C@H](c1ccc(F)cc1)N1C(=O)O[C@](Cc2ccccc2)(c2nc3cc(N4CCOCC4)ccc3[nH]2)C1=O` [Compound 9, (5R)-5-Benzyl-3-[(1R)-1-(4-fluorophenyl)ethyl]-5-(5-morpholin-4-yl-1H-benzimidazol-2-yl)-1,3-oxazolidine-2,4-dione], the IC50 was less than 100 nM.

Take `C[C@H](c1ccc(F)cc1)N1C(=O)O[C@](Cc2ccccc2)(c2nc3ccc(CN4CCOCC4)cc3[nH]2)C1=O` [Compound 10, (5R)-5-Benzyl-3-[(1R)-1-(4-fluorophenyl)ethyl]-5-[5-(morpholinylmethyl)-1H-benzimidazol-2-yl]-1,3-oxazolidine-2,4-dione]: the half-maximal inhibitory concentration (IC50) lay in the range of 100 to 500 nM.

In the case of `CC(C1CCC(F)(F)CC1)N1C(=O)O[C@](Cc2ccccc2)(c2nc3ccc(Cl)cc3[nH]2)C1=O` (stereo partly drawn) [Compound 11, (5R)-5-Benzyl-5-(6-chloro-1H-benzimidazol-2-yl)-3-[1-(4,4-difluorocyclohexyl)ethyl]-1,3-oxazolidine-2,4-dione], the IC50 is less than 100 nM.

As to `C[C@H](C1CCCCC1)N1C(=O)O[C@](Cc2ccccc2)(c2nc3ccc(Cl)cc3[nH]2)C1=O` [Compound 12, (5R)-5-Benzyl-5-(5-chloro-1H-benzimidazol-2-yl)-3-[(1R)-1-cyclohexylethyl]-1,3-oxazolidine-2,4-dione], the half-inhibitory concentration (IC50) was less than 100 nM.

As for `O=C1O[C@](Cc2ccccc2)(c2nc3ccc(Cl)cc3[nH]2)C(=O)N1[C@@H]1CCc2ccccc21` [Compound 13, (5R)-5-Benzyl-5-(5-chloro-1H-benzimidazol-2-yl)-3-[(1R)-2,3-dihydro-1H-inden-1-yl]-1,3-oxazolidine-2,4-dione], the half-inhibitory concentration (IC50) is 100 to 500 nM.

With `C[C@H](c1ccc(F)c(F)c1)N1C(=O)O[C@](Cc2ccccc2)(c2nc3ccc(Cl)cc3[nH]2)C1=O` [Compound 15, (5R)-5-Benzyl-5-(6-chloro-1H-benzimidazol-2-yl)-3-[(1R)-1-(3,4-difluorophenyl)ethyl]-1,3-oxazolidine-2,4-dione], the IC50 lay in the range of 100 to 500 nM.

As for `CCS(=O)(=O)Nc1ccc2nc([C@@]3(Cc4ccccc4)OC(=O)N([C@H](C)c4ccc(F)cc4)C3=O)[nH]c2c1` [Compound 16, N-(2-{(5R)-5-Benzyl-3-[(1R)-1-(4-fluorophenyl)ethyl]-2,4-dioxo-1,3-oxazolidin-5-yl}-1H-benzimidazol-6-yl)ethanesulfonamide], the half-inhibitory concentration (IC50) fell in the range of 100 to 500 nM.

Regarding `O=C1O[C@](Cc2ccc(F)cc2)(c2nc3ccc(Cl)cc3[nH]2)C(=O)N1[C@@H]1CCc2ccccc21` [Compound 17, 5-(6-Chloro-1H-benzimidazol-2-yl)-3-[(1R)-2,3-dihydro-1H-inden-1-yl]-5-(4-fluorobenzyl)-1,3-oxazolidine-2,4-dione], the half-maximal inhibitory concentration (IC50) was 100 to 500 nM.

With `C[C@H](C1CCCCC1)N1C(=O)O[C@](Cc2ccc(F)cc2)(c2nc3ccc(C#N)cc3[nH]2)C1=O` [Compound 18, 2-{3-[(1R)-1-Cyclohexylethyl]-5-(4-fluorobenzyl)-2,4-dioxo-1,3-oxazolidin-5-yl}-1H-benzimidazole-5-carbonitrile], the half-inhibitory concentration (IC50) was in the range of 100 to 500 nM.
